Measurements published in ChEMBL document CHEMBL1201862, “PubChem BioAssay data set” (2004).
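Protocol summary: plate cells (96-well), add compound at 5 concentrations, incubate 48 h, interpolate endpoints linearly. GI50 = concentration required for 50% inhibition of growth.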 Activity calls are given as the source filed them. No stated cut-off is given here; in the data, active = GI50 up to about 1.1 µM and inactive = higher.

Experiments:
Test in all cases: NCI anticancer screen, dose series, 48 h
SW-620 = system: SW-620
RPMI-8226 = system: RPMI-8226
CAKI-1 = system: CAKI-1
Malme-3M = system: Malme-3M
SNB-19 = system: SNB-19
UO-31 = system: UO-31
M14 = system: M14
HOP-92 = system: HOP-92
HCC 2998 = system: HCC 2998
A498 = system: A498
UACC-257 = system: UACC-257
SN12C = system: SN12C
EKVX = system: EKVX
OVCAR-3 = system: OVCAR-3
OVCAR-5 = system: OVCAR-5
NCI-H460 = system: NCI-H460
SF-268 = system: SF-268
OVCAR-8 = system: OVCAR-8
MDA-MB-435 = system: MDA-MB-435
BT-549 = system: BT-549

Measured: GI50

O=C(Nc1cc(Cl)c(Cl)cc1Cl)C(=O)C(C(=O)c1ccc(Cl)c(Cl)c1)C1OC(=O)c2ccccc21 (stereo not given)
inactive: SW-620 15.6 µM | RPMI-8226 15.6 µM | CAKI-1 16.1 µM | Malme-3M > 10 µM | SNB-19 15.5 µM | UO-31 16.8 µM | M14 13.5 µM | HOP-92 11 µM | HCC 2998 18.8 µM | A498 17.2 µM | UACC-257 13.9 µM | SN12C 21.6 µM | EKVX 19.6 µM | OVCAR-3 13.7 µM | OVCAR-5 11.1 µM | NCI-H460 3.07 µM | SF-268 15.7 µM | OVCAR-8 10.7 µM

COC(=O)C1CCCC2(C1)OCCO2 (stereo not given)
inactive: SW-620 > 100 µM | RPMI-8226 > 100 µM | CAKI-1 > 100 µM | Malme-3M > 100 µM | SNB-19 > 100 µM | UO-31 > 100 µM | M14 > 100 µM | HOP-92 > 100 µM | HCC 2998 > 100 µM | A498 > 100 µM | UACC-257 > 100 µM | SN12C > 100 µM | EKVX > 100 µM | OVCAR-3 > 100 µM | OVCAR-5 > 100 µM | NCI-H460 > 100 µM | SF-268 > 100 µM | OVCAR-8 > 100 µM

CC1C[C@]2(C)C(NCCN)=Nc3ccccc3[C@@H]2N(C)c2ccccc21 (stereo not given in full)
inactive: SW-620 17.5 µM | RPMI-8226 14.1 µM | CAKI-1 15.5 µM | Malme-3M 3.72 µM | SNB-19 13.4 µM | MDA-MB-435 10.7 µM | UO-31 11.2 µM | M14 1.9 µM | HOP-92 2.3 µM | HCC 2998 2.9 µM | A498 16.5 µM | UACC-257 5.04 µM | SN12C 14.4 µM | EKVX 16.8 µM | OVCAR-3 11.1 µM | OVCAR-5 14 µM | NCI-H460 11.1 µM | SF-268 13.9 µM | OVCAR-8 14.7 µM

Cc1ccccc1/C=C/C(=O)c1ccccc1
inactive: SW-620 > 10 µM | RPMI-8226 24.9 µM | CAKI-1 19.4 µM | Malme-3M 18.1 µM | SNB-19 16.5 µM | UO-31 21.7 µM | M14 16.1 µM | HOP-92 20.5 µM | HCC 2998 18.4 µM | A498 16.4 µM | UACC-257 22.5 µM | SN12C > 10 µM | EKVX 17.5 µM | OVCAR-3 17.3 µM | OVCAR-5 16.3 µM | NCI-H460 17.8 µM | SF-268 15.9 µM | OVCAR-8 25.2 µM

CCOC(=O)C1([Se]c2ccccc2)CCCC1=O (stereo not given)
inactive: RPMI-8226 23.3 µM | CAKI-1 44.5 µM | Malme-3M 32.6 µM | SNB-19 44.1 µM | UO-31 23.6 µM | M14 21.3 µM | HOP-92 25.5 µM | HCC 2998 25.9 µM | A498 > 100 µM | UACC-257 43.7 µM | SN12C 15 µM | EKVX 23.6 µM | OVCAR-3 26.6 µM | OVCAR-5 40.8 µM | NCI-H460 27.9 µM | SF-268 11.7 µM | OVCAR-8 16.8 µM

OCC1OC(c2ccccc2)CC1O (stereo not given)
inactive: SW-620 > 100 µM | CAKI-1 > 100 µM | SNB-19 > 100 µM | MDA-MB-435 > 100 µM | UO-31 > 100 µM | M14 > 100 µM | A498 > 100 µM | UACC-257 > 100 µM | SN12C > 100 µM | EKVX > 100 µM | OVCAR-3 > 100 µM | OVCAR-5 > 100 µM | NCI-H460 > 100 µM | OVCAR-8 > 100 µM

COc1cc(O)c2c(c1)OCC1(Cc3cc(OC)c(OC)cc31)C2=O (stereo not given)
inactive: SW-620 > 100 µM | RPMI-8226 37.9 µM | CAKI-1 52 µM | Malme-3M 87.7 µM | SNB-19 > 100 µM | MDA-MB-435 29 µM | UO-31 > 100 µM | M14 > 100 µM | HOP-92 23.3 µM | A498 > 100 µM | UACC-257 43.1 µM | SN12C > 100 µM | OVCAR-3 34 µM | OVCAR-5 > 100 µM | NCI-H460 > 100 µM | SF-268 > 100 µM | OVCAR-8 > 100 µM

CN1CCc2cc3c4cc2C1Cc1ccc(cc1)Oc1cc(ccc1O)CC1c2c(cc(O)c(c2O4)O3)CCN1C (stereo not given)
inactive: SW-620 2.22 µM | RPMI-8226 1.64 µM | CAKI-1 10.5 µM | Malme-3M 1.81 µM | SNB-19 2.83 µM | UO-31 3.44 µM | M14 1.62 µM | HOP-92 2.52 µM | HCC 2998 2.06 µM | A498 > 10 µM | UACC-257 1.95 µM | SN12C 3.63 µM | EKVX 7.08 µM | OVCAR-3 3.94 µM | OVCAR-5 8.2 µM | NCI-H460 1.87 µM | SF-268 2.16 µM | OVCAR-8 2.86 µM

O=C(c1ccccc1)N1C(=O)N(c2ccccc2)C(=N/c2ccccc2)/C1=N\c1ccccc1
inactive: SW-620 > 100 µM | RPMI-8226 > 100 µM | CAKI-1 48.1 µM | Malme-3M 69 µM | SNB-19 > 100 µM | MDA-MB-435 > 100 µM | UO-31 > 100 µM | HOP-92 64.1 µM | HCC 2998 28.8 µM | A498 > 100 µM | UACC-257 37.8 µM | SN12C > 100 µM | EKVX > 100 µM | OVCAR-5 99.1 µM | NCI-H460 15 µM | SF-268 > 100 µM | OVCAR-8 > 100 µM

CCc1c(OC(C)=O)c2c(NC3OCC(OC(C)=O)C(OC(C)=O)C3OC(C)=O)nc(SC)nc2oc1=O (stereo not given)
inactive: SW-620 > 100 µM | RPMI-8226 > 100 µM | CAKI-1 > 100 µM | Malme-3M > 100 µM | SNB-19 > 100 µM | UO-31 > 100 µM | M14 > 100 µM | HOP-92 > 100 µM | HCC 2998 > 100 µM | A498 > 100 µM | UACC-257 > 100 µM | SN12C > 100 µM | EKVX > 100 µM | OVCAR-3 > 100 µM | OVCAR-5 > 100 µM | NCI-H460 > 100 µM | OVCAR-8 > 100 µM

CN(CCCCCl)P(=O)(OCc1ccc([N+](=O)[O-])o1)OCC1OC(n2ccc(N)nc2=O)C(O)C1O (stereo not given)
inactive: SW-620 2.45 µM | RPMI-8226 1.57 µM | CAKI-1 55 µM | Malme-3M 1.16 µM | SNB-19 3.21 µM | MDA-MB-435 1.98 µM | UO-31 14.2 µM | M14 7.48 µM | HCC 2998 3.37 µM | UACC-257 2.21 µM | SN12C 3.52 µM | OVCAR-3 2.1 µM | OVCAR-5 14.8 µM | NCI-H460 2.29 µM | SF-268 7.6 µM | OVCAR-8 2.82 µM

O=C1N[C@H](C(=O)O)[C@@H](c2ccc(OCc3ccccc3)cc2)O1
inactive: SW-620 > 100 µM | RPMI-8226 11.6 µM | CAKI-1 34.3 µM | Malme-3M > 100 µM | SNB-19 17.7 µM | MDA-MB-435 > 100 µM | UO-31 > 100 µM | M14 > 100 µM | HCC 2998 > 100 µM | UACC-257 > 100 µM | SN12C 45.1 µM | EKVX 22.4 µM | OVCAR-3 92.5 µM | OVCAR-5 > 100 µM | BT-549 32.1 µM | SF-268 25.4 µM | OVCAR-8 20.7 µM

CC(=O)c1ccc(/N=N/c2ccc3nonc3c2N)cc1
inactive: SW-620 > 100 µM | RPMI-8226 > 100 µM | CAKI-1 > 100 µM | Malme-3M > 100 µM | SNB-19 > 100 µM | MDA-MB-435 > 100 µM | UO-31 > 100 µM | M14 52.8 µM | HOP-92 > 100 µM | HCC 2998 > 100 µM | UACC-257 > 100 µM | SN12C > 100 µM | EKVX 9.98 µM | OVCAR-3 88.3 µM | OVCAR-5 > 100 µM | NCI-H460 > 100 µM | SF-268 > 100 µM | OVCAR-8 > 100 µM

CCOC(=O)c1c(SC(=O)c2ccc(C(C)(C)C)cc2)n(-c2ccccc2)c(=S)n(-c2ccccc2)c1=O
inactive: SW-620 > 100 µM | CAKI-1 > 100 µM | Malme-3M > 100 µM | SNB-19 > 100 µM | MDA-MB-435 > 100 µM | M14 > 100 µM | HOP-92 > 100 µM | HCC 2998 > 100 µM | A498 > 100 µM | UACC-257 > 100 µM | SN12C > 100 µM | EKVX > 100 µM | OVCAR-3 > 100 µM | OVCAR-5 > 100 µM | NCI-H460 > 100 µM | SF-268 > 100 µM | OVCAR-8 > 100 µM

CCNc1ncnc2c1nnn2CC
inactive: SW-620 > 100 µM | RPMI-8226 > 100 µM | CAKI-1 > 100 µM | Malme-3M > 100 µM | SNB-19 > 100 µM | MDA-MB-435 > 100 µM | UO-31 > 100 µM | M14 > 100 µM | HOP-92 72.1 µM | HCC 2998 > 100 µM | A498 > 100 µM | UACC-257 > 100 µM | SN12C > 100 µM | EKVX > 100 µM | OVCAR-3 > 100 µM | OVCAR-8 97.5 µM

C=C1C(=O)C23CC1CCC2C12CO[C@@H]4OCC(C)(CC[C@@H]1OC3=O)C42 (stereo not given in full)
inactive: SW-620 2.49 µM | RPMI-8226 1.57 µM | CAKI-1 2.38 µM | Malme-3M 2.3 µM | SNB-19 8 µM | UO-31 9.71 µM | M14 1.31 µM | HOP-92 2.64 µM | HCC 2998 16.4 µM | A498 19.4 µM | UACC-257 4.98 µM | SN12C 8.32 µM | EKVX 15.5 µM | OVCAR-3 6.49 µM | OVCAR-5 15.8 µM | NCI-H460 6.64 µM | SF-268 6.32 µM | OVCAR-8 2.02 µM
